Data set [1] can be described thus: Stability in human plasma. The data set is classed as in vitro ADME. The procedure: (§1) Exemplary test compounds (prodrugs) of the invention can be incubated in plasma at 37° C. to test their stability and hydrolysis to give the corresponding drug TENATOPRAZOLE. The concentration of the compounds and also of the corresponding proton pump inhibitor TENATOPRAZOLE can be determined by a gradient HPLC-UV method. Although the half-lives of test compounds in plasma is expected to vary depending on their specific structure, nevertheless it is expected that in plasma the compounds of the invention are converted into the corresponding proton pump inhibitor TENATOPRAZOLE at a rate faster than the hydrolysis rate of the compound at neutral or near neutral pH. […] Therefore the compounds of the invention and especially the preferred compounds which have the chemical structure shown in Formulas 4 and 5 are good candidates to be used as prodrugs in intravenous injection and are expected to release the active proton pump inhibitor in vivo.

The nature of data set [2]: Stability in rat plasma at 37° C., hydrolysis to tenatoprazole. The data set is classed as in vitro ADME. The procedure: as §1
The nature of data set [3]: Stability at physiological pH 7.4 without plasma or blood. It is filed as physicochemical. The procedure:
as §1

Data set [4] concerns histamine and carbachol-stimulated gastric acid secretion. Put plainly: Inhibition of gastric acid secretion of the conscious male rat, oral administration. The data set is classed as in vivo. To be noted: 40 μmole/kg, pylorus ligated 3 hours after administration, gastric juice collected two hours later. The protocol:
Male rats (the Sprague-Dawley strain) are used in this assay. Salts of known benzimidazole type proton pump inhibitors, such as OMEPRAZOLE sodium salt, LANSOPRAZOLE sodium salt or TENATOPRAZOLE sodium salt (20 mg) is suspended in 10 ml of 0.1 N NaHCO3. 70 mg of each of the sodium salts of the compounds of the present invention are dissolved in 6 ml of 50% DMSO-50% 50 mM sodium phosphate buffer, pH 7.4. The doses administered to the rats are as follows (μmole per kg body weight of the rat): TENATOPRAZOLE (40 μmole/kg), a mixture of sodium 2-(4-(5-methoxy-2-((4-methoxy-3,5-dimethylpyridin-2-yl)methylsulfinyl)-1H-imidazo[4,5-b]pyridin-1-ylsulfonyl)phenoxy)acetate (Compound 1) and sodium 2-(4-(5-methoxy-2-((4-methoxy-3,5-dimethylpyridin-2-yl)methylsulfinyl)-3H-imidazo[4,5-b]pyridin-3-ylsulfonyl)phenoxy)acetate (1:1 of the isomeric mixture) 20 μmole/kg, and 40 μmole/kg. These drug solutions are orally administered. 3 hours after administration the abdomen of the rat is incised and the pylorus is ligated under light ether anethesia. […] The gastric juice is collected and acid output is quantified by titration using 0.1 N NaOH solution. […] Acid output is quantified by same method as described above, showing maximum histamine and carbachol-stimulated gastric acid secretion. Percentage inhibition is calculated from the fractional responses elicited by the test compound and a control experiment.

Data set [5] can be described thus: Plasma concentration of tenatoprazole after oral dosing in rats. It is filed as in vivo, rat.

The values below come from patent publication US20100317689A1, “Prodrugs of proton pump inhibitors including the 1h-imidazo[4,5-b] pyridine moiety” (priority 2006, published 2010).

What is called half-life is the time needed for the level to fall by half in the phase considered. A higher half-life goes with slow decline.

Consider `COc1ccc2c(n1)nc([S+]([O-])Cc1ncc(C)c(OC)c1C)n2S(=O)(=O)c1ccc(OCC(=O)[O-])cc1.[Na+]` (stereo not drawn) [Compound 1, sodium 2-(4-(5-methoxy-2-((4-methoxy-3,5-dimethylpyridin-2-yl)methylsulfinyl)-1H-imidazo[4,5-b]pyridin-1-ylsulfonyl)phenoxy)acetate], for which the half-life in data set [1] was 1.35 min.
With “sodium 2-(4-(5-methoxy-2-((4-methoxy-3,5-dimethylpyridin-2-yl)methylsulfinyl)-1H-imidazo[4,5-b]pyridin-1-ylsulfonyl)phenoxy)acetate (Compound 1) and sodium 2-(4-(5-methoxy-2-((4-methoxy-3,5-dimethylpyridin-2-yl)methylsulfinyl)-3H-imidazo[4,5-b]pyridin-3-ylsulfonyl)phenoxy)acetate [1:1 mixture of Compound 1 and its positional isomer]”, in data set [2], the “half-life in rat plasma” value was found to be 1.2 min. The “half-life in physiological pH 7.4 without the plasma or blood” value in data set [3] is reported as “greater than 24 hr”. In addition, in data set [4], the “inhibition of gastric acid secretion” value was found to be 83.3±13.7%. Besides, the “plasma concentration of tenatoprazole” value in data set [5] (male Sprague-Dawley rats, oral 40 μmole/kg, 5 h postdose) was found to be 1940 ± 1685 ng/mL. In addition, the “plasma level and half-life of TENATOPRAZOLE compared with TENATOPRAZOLE itself” value in data set [5] (rat, oral) is “maintains higher plasma level of TENATOPRAZOLE with longer plasma half-life”.
